Assay [1] addresses T1, Glucocorticoid Receptor (GR) (Homo sapiens, UniProt P04150).
T1 construct: purchased Invitrogen P2893
T1 sequence (P04150 1-777): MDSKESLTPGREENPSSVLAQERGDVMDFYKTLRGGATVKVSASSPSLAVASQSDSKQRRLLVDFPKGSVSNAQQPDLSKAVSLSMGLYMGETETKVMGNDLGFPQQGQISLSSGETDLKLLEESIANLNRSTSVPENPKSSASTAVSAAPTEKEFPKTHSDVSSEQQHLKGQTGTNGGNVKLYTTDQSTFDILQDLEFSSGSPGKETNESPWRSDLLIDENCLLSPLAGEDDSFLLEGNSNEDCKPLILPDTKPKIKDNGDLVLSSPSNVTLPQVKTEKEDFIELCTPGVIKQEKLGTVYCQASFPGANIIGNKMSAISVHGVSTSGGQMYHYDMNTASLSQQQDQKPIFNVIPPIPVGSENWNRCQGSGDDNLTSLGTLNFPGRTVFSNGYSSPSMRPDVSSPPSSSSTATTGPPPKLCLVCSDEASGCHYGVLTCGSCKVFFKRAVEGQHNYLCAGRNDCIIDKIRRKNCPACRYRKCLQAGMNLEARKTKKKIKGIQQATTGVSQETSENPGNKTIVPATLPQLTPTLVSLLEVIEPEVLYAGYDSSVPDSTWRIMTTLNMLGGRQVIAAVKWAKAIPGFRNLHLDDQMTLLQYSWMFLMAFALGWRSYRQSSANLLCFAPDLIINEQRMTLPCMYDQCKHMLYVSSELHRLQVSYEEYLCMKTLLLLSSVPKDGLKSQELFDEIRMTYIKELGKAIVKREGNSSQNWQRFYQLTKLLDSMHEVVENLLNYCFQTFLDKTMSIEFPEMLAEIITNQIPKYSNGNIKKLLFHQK
The assay is described as follows: GR Fluorescence Polarization Assay (PolarScreen Glucocorticoid Receptor Competitor Assay, Red). As to conditions: fluorescence polarization binding ranges. In short, it runs like this:
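Competitive fluorescence polarization using a red fluorescent glucocorticoid tracer and GR in kit buffer. Compounds in 1:4 DMSO serial dilution, incubated with tracer and receptor overnight at 4° C before polarization read-out.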

A further assay concerns IL-6. Kind of assay: A549 Cell Assay to Measure Inflammation Markers (inhibition of IL-1β-induced IL-6). It counts as cell-based. As to conditions: A549 cells, read-out: A549 cell assay. In a few lines:
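A549 cells pre-incubated 1 h with compound (10-point dilution, 0.1% DMSO final) in charcoal-stripped serum medium, then stimulated 4 h with 1 ng/mL IL-1β at 37° C. Supernatant IL-6 measured by MSD immunoassay; IC50 and Emax relative to 1 μM prednisolone as 100% inhibition; viability checked by CellTiter-Glo.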

Where two headings read alike, the source gives them in different places. A value given as a limit tells only on which side of the number the result lay.

With `N#CC[C@]1(O)CC[C@]2(Cc3ncccn3)c3cc4cnn(-c5ccc(F)cc5)c4cc3CCC[C@@H]2C1` [Example 63], the IC50 (in assay [1]; in the assay with IL-6) was below 100 nM in each case.
On to `COC[C@@]1(O)CC[C@@]2(CC3CC3)c3cc4cnn(-c5ccc(F)cc5)c4cc3CCC[C@H]2C1` [Example 40], for which the IC50 (in assay [1]; in the assay on IL-6) was below 100 nM in each case.
As to `CC[C@@]12CC[C@](O)(CC#N)C[C@@H]1CCOc1cc3c(cnn3-c3ccnc(C)c3)cc12` [Example 145], the IC50 (in assay [1]; in the assay with IL-6 (Homo sapiens)) was below 100 nM each time.
With `N#CC[C@@]1(O)CC[C@@]2(Cc3ncccn3)c3cc4cnn(-c5ccc(F)cc5)c4cc3CCC[C@H]2C1` [Example 62], the IC50 (in assay [1]; with IL-6) was below 100 nM each time.
As to `CC[C@@]12CC[C@](O)(COC)C[C@@H]1CCOc1cc3c(cnn3-c3ccnc(OC)c3)cc12` [Example 138], the IC50 in assay [1] was below 100 nM; in the assay with IL-6, 1000 to 10000 nM.
As for `CC[C@]12CC[C@@](O)(COC)C[C@H]1CCOc1cc3c(cnn3-c3ccncc3)cc12` [Example 133], the IC50 in assay [1] is 100 to 1000 nM; in the assay with IL-6 (Homo sapiens), above 10000 nM.
For `CC[C@]12CC[C@@](O)(C(F)(F)F)C[C@@H]1CCCc1nc3c(cnn3-c3ccc(F)cc3)cc12` (single isomer, unassigned) [Example 153], in that order: 100 to 1000 nM and above 10000 nM.
For `CC[C@]12CC[C@@](OCC(=O)O)(C(F)(F)F)C[C@@H]1CCCc1cc3c(cnn3-c3ccc(F)cc3)cc12` [Example 172, 2-(((3S,4aS,12bS)-12b-ethyl-9-(4-fluorophenyl)-3-(trifluoromethyl)-1,2,3,4,4a,5,6,7,9,12b-decahydrobenzo[6,7]cyclohepta[1,2-f]indazol-3-yl)oxy)acetic acid], in that order: below 100 nM and above 10000 nM.
As to `CC[C@]12CC[C@@](O)(C(F)(F)F)C[C@@H]1CCCc1cc3c(cnn3-c3ccc(S(C)(=O)=O)cc3)cc12` [Example 169, (3S,4aS,12bS)-12b-ethyl-9-(4-(methylsulfonyl)phenyl)-3-(trifluoromethyl)-1,2,3,4,4a,5,6,7,9,12b-decahydrobenzo[6,7]cyclohepta[1,2-f]indazol-3-ol], the IC50 was 100 to 1000 nM in assay [1] and 1000 to 10000 nM in the assay with IL-6 (Homo sapiens).
For `C#C[C@]1(O)CC[C@]2(CC)c3cc4cnn(-c5ccc(F)cc5)c4cc3CCC[C@H]2C1` (single isomer, unassigned) [Example 110] the same measures were below 100 nM and 100 to 1000 nM.
For `CC[C@]12C[C@@H](O)[C@@](O)(C(F)(F)F)C[C@@H]1CCCc1cc3c(cnn3-c3ccc(F)cc3)cc12` (single isomer, unassigned) [Example 122], in that order: below 100 nM and below 100 nM.
Consider `CC[C@@]12CC(=O)[C@](C)(O)C[C@@H]1CCCc1cc3c(cnn3-c3ccc(F)cc3)cc12` (racemic) [Example 100, rac-(3R,4aS,12bR)-12b-Ethyl-9-(4-fluorophenyl)-3-hydroxy-3-methyl-1,3,4,4a,5,6,7,12b-octahydrobenzo[6,7]cyclohepta[1,2-f]indazol-2(9H)-one], for which the IC50 (in assay [1]; in the assay on IL-6 (Homo sapiens)) was below 100 nM in each case.
`CC[C@@]12CC[C@@](C)(O)C[C@@H]1CCCc1cc3c(cnn3-c3ccc(F)cc3)cc12` [Example 54]: the IC50 (in assay [1]; in the assay with IL-6) was below 100 nM in each case.
Consider `OC[C@@]12CC[C@](O)(C(F)(F)F)C[C@H]1CCCc1cc3c(cnn3-c3ccc(F)cc3)cc12` [Example 78, (3R,4aR,12bS)-9-(4-fluorophenyl)-12b-(hydroxymethyl)-3-(trifluoromethyl)-1,2,3,4,4a,5,6,7,9,12b-decahydrobenzo[6,7]cyclohepta[1,2-f]indazol-3-ol], for which the IC50 (in assay [1]; with IL-6 (Homo sapiens)) was below 100 nM each time.
Consider “(2S,3R,4aS,12bS)-12b-ethyl-9-(4-fluorophenyl)-3-(trifluoromethyl)-1,2,3,4,4a,5,6,7,9,12b-decahydrobenzo[6,7]cyclohepta[1,2-f]indazole-2,3-diol [Example 120]”, for which the results for the IC50 (in assay [1]; in the assay with IL-6) were below 100 nM and 100 to 1000 nM, respectively.
Consider `CC[C@@]12CC[C@](O)(COC)C[C@@H]1CCOc1cc3c(cnn3-c3ccnc(C)c3)cc12` (single isomer, unassigned) [Example 128], for which the IC50 (in assay [1]; in the assay on IL-6 (Homo sapiens)) was below 100 nM in each case.
Consider `CC[C@]12CC(=O)[C@@](O)(C(F)(F)F)C[C@@H]1CCCc1cc3c(cnn3-c3ccc(F)cc3)cc12` (single isomer, unassigned) [Example 116], for which the IC50 (in assay [1]; in the assay with IL-6 (Homo sapiens)) was 100 to 1000 nM in each case.
As to `CC[C@]12CC[C@@](O)(C(F)(F)F)C[C@@H]1CCOc1cc3c(cnn3-c3ccc(F)cc3)cc12` (single isomer, unassigned) [Example 147], the IC50 was below 100 nM in assay [1] and 100 to 1000 nM in the assay with IL-6 (Homo sapiens).
For the compound `N#CC[C@]1(O)CC[C@]2(Cc3ccccn3)c3cc4cnn(-c5ccncc5)c4cc3CCC[C@@H]2C1` [Example 69], the IC50 (in assay [1]; in the assay with IL-6) was below 100 nM throughout.
Take `CC[C@@]12CC[C@](O)(COC)C[C@@H]1CCOc1cc3c(cnn3-c3ccc(F)cc3)cc12` (racemic) [Example 129]: the IC50 (in assay [1]; with IL-6) was below 100 nM throughout.
As for `N#CC[C@@]1(O)CC[C@@]2(CC3CC3)c3cc4cnn(-c5ccc(F)cc5)c4cc3CCC[C@H]2C1` [Example 67], the IC50 (in assay [1]; in the assay with IL-6) was below 100 nM throughout.
Regarding `CC[C@]12CC[C@@](O)(CC#N)C[C@H]1CCCc1cc3c(cnn3-c3ccc(F)cc3)cc12` [Example 64], the IC50 (in assay [1]; with IL-6) was below 100 nM throughout.
With `CC[C@]12CC[C@](O)(C(F)(F)F)C[C@@H]1CCCc1nc3c(cnn3-c3ccc(F)cc3)cc12` (racemic) [Example 151, rac-(3R,4aS,12bS)-12b-Ethyl-9-(4-fluorophenyl)-3-(trifluoromethyl)-1,2,3,4,4a,5,6,7,9,12b-decahydrobenzo[3,4]cyclohepta[1,2-b]pyrazolo[4,3-e]pyridin-3-ol], the IC50 lay within 1000 to 10000 nM in assay [1] and 100 to 1000 nM with IL-6 (Homo sapiens).
Take `CS(=O)(=O)NC[C@@]12CC[C@](O)(C(F)(F)F)C[C@H]1CCCc1cc3c(cnn3-c3ccc(F)cc3)cc12` [Example 74, N-(((3R,4aR,12bS)-9-(4-fluorophenyl)-3-hydroxy-3-(trifluoromethyl)-1,2,3,4,4a,5,6,7,9,12b-decahydrobenzo[6,7]cyclohepta[1,2-f]indazol-12b-yl)methyl)methanesulfonamide]: the IC50 (in assay [1]; in the assay with IL-6 (Homo sapiens)) was below 100 nM each time.
With `CC[C@]12CC[C@@](OCC(N)=O)(C(F)(F)F)C[C@@H]1CCCc1cc3c(cnn3-c3ccc(F)cc3)cc12` [Example 171, 2-(((3S,4aS,12bS)-12b-Ethyl-9-(4-fluorophenyl)-3-(trifluoromethyl)-1,2,3,4,4a,5,6,7,9,12b-decahydrobenzo[6,7]cyclohepta[1,2-f]indazol-3-yl)oxy)acetamide], the IC50 (in assay [1]; in the assay on IL-6 (Homo sapiens)) was below 100 nM throughout.
With `N#CC[C@]1(O)CC[C@]2(Cc3ccccn3)c3cc4cnn(-c5ccc(F)cc5)c4cc3CCC[C@@H]2C1` (single isomer, unassigned) [Example 18], the IC50 (in assay [1]; in the assay on IL-6 (Homo sapiens)) was below 100 nM each time.
Regarding `CCC[C@@]1(O)CC[C@]2(CC)c3cc4cnn(-c5ccc(F)cc5)c4cc3CCC[C@H]2C1` (single isomer, unassigned) [Example 6], the IC50 (in assay [1]; with IL-6 (Homo sapiens)) was 100 to 1000 nM in each case.
With `O=S1(=O)CCCN1C[C@@]12CC[C@](O)(C(F)(F)F)C[C@H]1CCCc1cc3c(cnn3-c3ccc(F)cc3)cc12` [Example 75, 2-(((3R,4aR,12bS)-9-(4-fluorophenyl)-3-hydroxy-3-(trifluoromethyl)-1,2,3,4,4a,5,6,7,9,12b-decahydrobenzo[6,7]cyclohepta[1,2-f]indazol-12b-yl)methyl)isothiazolidine 1,1-dioxide], the IC50 (in assay [1]; in the assay on IL-6 (Homo sapiens)) was below 100 nM each time.
On to `CC[C@@]12C[C@H](O)[C@](O)(C(F)(F)F)C[C@H]1CCCc1cc3c(cnn3-c3ccc(F)cc3)cc12` (single isomer, unassigned) [Example 121], for which the IC50 (in assay [1]; with IL-6 (Homo sapiens)) was below 100 nM each time.
As for `CCOC[C@@]1(O)CC[C@]2(CC)c3cc4cnn(-c5ccc(F)cc5)c4cc3CCC[C@H]2C1` (single isomer, unassigned) [Example 10], the results for the IC50 (in assay [1]; in the assay with IL-6 (Homo sapiens)) were 100 to 1000 nM and above 10000 nM, respectively.
In the case of `N#CC[C@]1(O)CC[C@]2(Cc3ncccn3)c3cc4cnn(-c5ccc(F)cc5)c4nc3CCC[C@@H]2C1` [Example 160], the IC50 (in assay [1]; with IL-6) was below 100 nM in each case.

For the origin of these results see patent US9193744B2, “Heterocyclic nuclear hormone receptor modulators” (AbbVie Inc., priority 2012, dated 2015).
